Reference: PubChem BioAssay (NCI)
Values joined by “and” are separate entries in the source; they are usually repeats but may differ in a detail not shown here. Equal entries are not always repeated.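 How tested: cells in 96-well plates exposed to compound for 48 hours at five concentrations. GI50 is the concentration that inhibits growth by half. TGI: total growth inhibition.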

Columns and labels:
Test in all cases: DTP human tumour cell line panel, 48 h
K-562 leukemia = system: K-562 leukemia
IGROV1 ovarian = system: IGROV1 ovarian
SK-OV-3 ovarian = system: SK-OV-3 ovarian
NCI-H23 lung = system: NCI-H23 lung
U251 CNS = system: U251 CNS
SW-620 colon = system: SW-620 colon
SK-MEL-5 melanoma = system: SK-MEL-5 melanoma
COLO 205 colon = system: COLO 205 colon
SNB-19 CNS = system: SNB-19 CNS
HCC-2998 colon = system: HCC-2998 colon

Row | SMILES | TGI (K-562 leukemia) | TGI (IGROV1 ovarian) | TGI (SK-OV-3 ovarian) | TGI (NCI-H23 lung) | TGI (U251 CNS) | TGI (SW-620 colon) | TGI (SK-MEL-5 melanoma) | TGI (COLO 205 colon) | TGI (SNB-19 CNS) | GI50 (K-562 leukemia) | GI50 (IGROV1 ovarian) | GI50 (SK-OV-3 ovarian) | GI50 (NCI-H23 lung) | GI50 (U251 CNS) | GI50 (SW-620 colon) | GI50 (SK-MEL-5 melanoma) | GI50 (COLO 205 colon) | GI50 (SNB-19 CNS) | TGI (HCC-2998 colon) | GI50 (HCC-2998 colon)
1 | CN1CCCN(C)C1c1cc([N+](=O)[O-])ccc1O | > 100 µM | > 100 µM | > 100 µM | > 100 µM | > 100 µM | > 100 µM | 48.4 µM | > 100 µM | > 100 µM | – | – | – | – | – | – | – | – | – | – | –
2 | O=C(Nc1ccc(Cl)cc1)c1ccc(NC2=C(Cl)C(=O)N(Cc3ccccc3)C2=O)cc1 | 48.9 µM | 6.22 µM | > 100 µM | 28.6 µM | 20.4 µM | > 100 µM | 99.3 µM | > 100 µM | 76.6 µM | 3.29 µM | 0.98 µM | 32.9 µM | 12.9 µM | 8.07 µM | 6.36 µM | 31.1 µM | 30.3 µM | 23.2 µM | – | –
3 | CN1c2ccccc2N(C)C2C1N(C)c1ccccc1N2C (stereo not drawn) | > 100 µM | > 100 µM | – | 74.7 µM | > 100 µM | > 100 µM | 18.4 µM | 29.4 µM | 80.2 µM | – | – | – | – | – | – | – | – | – | 30.9 µM | –
4 | COc1cc(/C=C2\CC3C4CC=C5C[C@@H](OC(C)=O)CC[C@]5(C)C4CC[C@]3(C)C2=O)ccc1OCCCn1ccnc1 (stereo partly drawn) | 24.7 µM | 46.8 µM | – | 17.7 µM | 15.9 µM | 23.3 µM | 21.5 µM | > 50 µM | > 50 µM | 9.69 µM | 13.7 µM | – | 8.35 µM | 8.93 µM | 10.1 µM | 9.39 µM | 20.7 µM | 20.2 µM | 23 µM | 14.6 µM
5 | CN1NC2(CCCCC2)ON=C1c1ccccc1 | > 100 µM | > 100 µM | > 100 µM | > 100 µM | > 100 µM | > 100 µM | > 100 µM | > 100 µM | > 100 µM | – | – | – | – | – | – | – | – | – | – | –
6 | NC1CCN(c2nc(Nc3cccc(C(F)(F)F)c3)c3c(=O)[nH]ccc3n2)CC1 | 3.21 µM | – | 2.39 µM | 3.11 µM | 3.55 µM | 2.67 µM | 2.9 µM | 2.82 µM | 3.59 µM | 1.18 µM | – | 1.08 µM | 1.58 µM | 1.73 µM | 1.19 µM | 1.54 µM | 1.4 µM | 2 µM | 3 µM | 1.6 µM
7 | O=S(=O)(NCC1CCC(CNc2ccc(Cl)cc2)CC1)c1ccc(-c2ccccc2)cc1 (stereo not drawn) | > 50 µM | > 50 µM | > 50 µM | > 50 µM | > 50 µM | > 50 µM | > 50 µM | > 50 µM | > 50 µM | 17.4 µM | > 50 µM | > 50 µM | 20.6 µM | 23.5 µM | > 50 µM | 15.9 µM | > 50 µM | > 50 µM | – | –
8 | COc1cc2c3c(n(CCCNCCN)c(=O)c2cc1OC)-c1cc2c(cc1C3=O)OCO2 | 3.77 µM | – | > 100 µM | 1.14 µM | 0.533 µM | 3.9 µM | 6.77 µM | > 100 µM | > 100 µM | 0.601 µM | 0.839 µM | > 100 µM | 0.242 µM | 0.0484 µM | 0.377 µM | 0.978 µM | > 100 µM | 40.8 µM | – | –
9 | CN(C)CCCN1c2nc3ccccc3cc2Sc2cc3ccccc3nc21 | > 100 µM | – | 3.01 µM | 2.86 µM | 3.08 µM | 2.88 µM | 3.04 µM | 2.82 µM | 3.13 µM | 0.639 µM | – | 1.59 µM | 1.4 µM | 1.6 µM | 1.48 µM | 1.59 µM | 1.24 µM | 1.69 µM | 3.26 µM | 1.65 µM
10 | COC1OC(CO)C(O)C(O)C1Br (stereo not drawn) | > 100 µM | > 100 µM | – | > 100 µM | > 100 µM | > 100 µM | > 100 µM | > 100 µM | > 100 µM | – | – | – | – | – | – | – | – | – | > 100 µM | –
11 | C=C=C(CC)C(C(=O)OC)N(CC)CC (stereo not drawn) | > 100 µM | > 100 µM | > 100 µM | > 100 µM | > 100 µM | > 100 µM | > 100 µM | > 100 µM | > 100 µM | – | – | – | – | – | – | – | – | – | – | –
12 | NNc1cccc(/C=C/c2ccccc2)cc1=O | > 100 µM | 46.1 µM | > 100 µM | – | > 100 µM | > 100 µM | > 100 µM | > 100 µM | > 100 µM | 3.13 µM | 4.26 µM | 19.8 µM | – | 6.93 µM | 5.86 µM | 11.7 µM | 7.76 µM | 14.9 µM | > 100 µM | 16.8 µM
13 | COc1cc2c3c(c1)c1cc(OC)c(OC)cc1c[n+]3CC2 | 50 µM and > 100 µM | 50 µM and > 100 µM | > 100 µM | 45.6 µM and > 100 µM | 50 µM and 25.9 µM | > 100 µM | 50 µM and 36.6 µM | 50 µM and > 100 µM | 50 µM and > 100 µM | 40.5 µM | – | 89.5 µM | – | 1.28 µM | 26.6 µM | 11.8 µM | 14.8 µM | 1.94 µM | – | –
14 | CCOC(=O)C(CO)c1nc2c([nH]c1=O)c(=O)n(C)c(=O)n2C (stereo not drawn) | > 100 µM | > 100 µM | – | > 100 µM | > 100 µM | > 100 µM | > 100 µM | > 100 µM | > 100 µM | – | – | – | – | – | – | – | – | – | > 100 µM | –
15 | C[C@]1(CO)[C@H]2CC[C@@]34C=C[C@@](CO)(CC[C@H]3[C@]2(C)CC[C@H]1O)C4 | – | > 100 µM | > 100 µM | > 100 µM | > 100 µM | > 100 µM | 32.3 µM | > 100 µM | > 100 µM | – | – | – | – | – | – | – | – | – | > 100 µM | –
16 | CC(=O)O[C@H]1CC[C@@]2(C)C(=CC[C@H]3C4=CC=C(C(C)=O)[C@@]4(C)CCC32)C1 (stereo partly drawn) | – | > 100 µM | > 100 µM | – | > 100 µM | 52.7 µM | 40.3 µM | 39.6 µM | > 100 µM | – | – | – | – | – | – | – | – | – | > 100 µM | –
17 | CC1(C)OC(=O)C=C([O-])O1.CC1(C)OC(=O)C=C([O-])O1.O=S(=O)([O-])c1ccc([O-])c2ncccc12.O=S(=O)([O-])c1ccc([O-])c2ncccc12.[Ti+4] | > 100 µM | > 100 µM | > 100 µM | > 100 µM | – | > 100 µM | > 100 µM | > 100 µM | > 100 µM | > 100 µM | > 100 µM | > 100 µM | > 100 µM | – | > 100 µM | 92 µM | > 100 µM | > 100 µM | – | –
